Laboratory results published in patent publication US20150299125A1, “PRODRUG BIPYRIDYLAMINOPYRIDINES AS SYK INHIBITORS” (MERCK SHARP & DOHME CORP., priority 2012, published 2015).
In brackets after ≈: the same amount, converted by molar mass. Where two headings read alike, the source gives them in different places.

Experiments:
[1] = Solubility in biorelevant fasted state simulated intestinal fluid (FaSSIF); format: physicochemical; conditions: 25 °C, fassif, kinetic from dmso stock
Experimental: Solubility in Biorelevant Fasted State Simulated Intestinal Fluid (FaSSIF):
A 10 mM DMSO stock solution of compound to be tested is used. A 100 μM standard solution is generated by diluting 2.5 μL of the 10 mM stock solution with 247.5 μL of diluent (10% DMSO/10% MeCN/80% MeOH, v/v/v). A solubility solution is generated by diluting 5 μL of the 10 mM stock solution with 245 μL of FaSSIF (maximum solubility approximately 200 μM). […] The equilibrated solubility solution is filtered by centrifugation (3 minutes at 4000 rpm) using a 0.45 µm filter with a polypropylene membrane. The standard solution and the filtered equilibrated solubility solution are analyzed by HPLC/DAD. The solubility value is calculated by the following equation:
Solubility=(Peak area of sample/Peak area of standard)(Standard concentration)

[2] = target: T1, recombinant human GST-Syk (Homo sapiens, UniProt P43405); experiment: Homogeneous Time-Resolved Fluorescence (HTRF) assay for the recombinant human Syk enzyme; format: biochemical; conditions: recombinant human GST-Syk 5 pM, ATP 25 μM, read-out: IC50
T1 construct: purchased Carna Biosciences 08-176
Procedure, shortened: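 HTRF read-out, taken 30 min after adding 2 nM europium anti-pTyr antibody plus 70 nM streptavidin-APC in 40 mM EDTA/Tris pH 7.5, detects peptide phosphorylated by GST-tagged human Syk during a 45-min room-temperature reaction.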

| SMILES | solubility ([1]; Solubility) [µM] | IC50 [2] [nM] | solubility ([1]; FaSSIF (fasted state simulated intestinal fluid), FaSSIF, equilibrated overnight at 25° C., maximum solubility approximately 200 μM, read-out: Solubility) [µM] |
| --- | --- | --- | --- |
| Cc1cc(Nc2cc(C(F)F)ccn2)nc(-c2ccc([C@](C)(O)[C@H]3CC[C@H](C(=O)OC[C@@H]4COC(C)(C)O4)CC3)nc2)c1 [Example 1-15, [(4S)-2,2-dimethyl-1,3-dioxolan-4-yl]methyl trans 4-[(1R)-1-(6-{[4-(difluoromethyl)pyridin-2-yl]amino}-4-methyl-2,3′-bipyridin-6′-yl)-1-hydroxyethyl] cyclohexanecarboxylate] | 126 (≈ 75.2 µg/mL) | 18.5 | – |
| Cc1cc(Nc2cc(C(F)F)ccn2)nc(-c2ccc([C@](C)(O)[C@H]3CC[C@H](C(=O)OC[C@H](O)CO)CC3)nc2)c1 [Example 1-16, (2R)-2,3-dihydroxypropyl trans-4-[(1R)-1-(6-{[4-(difluoromethyl)pyridin-2-yl]amino}-4-methyl-2,3′-bipyridin-6′-yl)-1-hydroxyethyl] cyclohexanecarboxylate] | 165 (≈ 91.8 µg/mL) | 2.3 | – |
| Cc1cc(Nc2cc(C(F)F)ccn2)nc(-c2ccc([C@](C)(O)[C@H]3CC[C@H](C(=O)OC4CCNCC4)CC3)nc2)c1 [Example 1-17, piperidin-4-yl trans-4-[(1R)-1-(6-{[4-(difluoromethyl)pyridin-2-yl]amino}-4-methyl-2,3′-bipyridin-6′-yl)-1-hydroxyethyl] cyclohexanecarboxylate] | 136 (≈ 76.9 µg/mL) | 4.1 | – |
| Cc1cc(Nc2cc(C(F)F)ccn2)nc(-c2ccc([C@](C)(O)[C@H]3CC[C@H](C(=O)OC4CC5CCC(C4)N5)CC3)nc2)c1 (stereo partly drawn) [Example 1-18, 8-azabicyclo[3.2.1]oct-3-yl trans-4-[(1R)-1-(6-{[4-(difluoromethyl)pyridin-2-yl]amino}-4-methyl-2,3′-bipyridin-6′-yl)-1-hydroxyethyl] cyclohexanecarboxylate] | – | 2.7 | 109 (≈ 64.5 µg/mL) |
| Cc1cc(Nc2cc(C(F)F)ccn2)nc(-c2ccc([C@](C)(O)[C@H]3CC[C@H](C(=O)O[C@H]4C[C@H](N)C4)CC3)nc2)c1 [Example 1-19, trans-3-aminocyclobutyl trans-4-[(1R)-1-(6-{[4-(difluoromethyl)pyridin-2-yl]amino}-4-methyl-2,3′-bipyridin-6′-yl)-1-hydroxyethyl] cyclohexanecarboxylate] | 98 (≈ 54.1 µg/mL) | 4.4 | – |
| Cc1cc(Nc2cc(C(F)F)ccn2)nc(-c2ccc([C@](C)(O)[C@H]3CC[C@H](C(=O)OCC4CCOCC4)CC3)nc2)c1 [Example 1-20, tetrahydro-2H-pyran-4-ylmethyl trans-4-[(1R)-1-(6-{[4-(difluoromethyl)pyridin-2-yl]amino}-4-methyl-2,3′-bipyridin-6′-yl)-1-hydroxyethyl] cyclohexanecarboxylate] | 47 (≈ 27.3 µg/mL) | 34.1 | – |
| CN[C@H]1CC[C@H](OC(=O)[C@H]2CC[C@H]([C@@](C)(O)c3ccc(-c4cc(C)cc(Nc5cc(C(F)F)ccn5)n4)cn3)CC2)CC1 [Example 1-24, trans-4-(methylamino)cyclohexyl trans-4-[(1R)-1-(6-{[4-(difluoromethyl)pyridin-2-yl]amino}-4-methyl-2,3′-bipyridin-6′-yl)-1-hydroxyethyl] cyclohexanecarboxylate] | 141 (≈ 83.7 µg/mL) | 3.5 | – |
| Cc1cc(Nc2cc(C(F)F)ccn2)nc(-c2ccc([C@](C)(O)[C@H]3CC[C@H](C(=O)OCCCCCCN(C)C)CC3)nc2)c1 [Example 1-25, 6-(dimethylamino)hexyl trans-4-[(1R)-1-(6-{[4-(difluoromethyl)pyridin-2-yl]amino}-4-methyl-2,3′-bipyridin-6′-yl)-1-hydroxyethyl] cyclohexanecarboxylate] | 73 (≈ 44.5 µg/mL) | < 0.5 | – |
| CO[C@H]1O[C@H](COC(=O)[C@H]2CC[C@H]([C@@](C)(O)c3ccc(-c4cc(C)cc(Nc5cc(C(F)F)ccn5)n4)cn3)CC2)[C@@H](O)[C@H](O)[C@H]1O [Example 1-26, methyl 6-O-({trans-4-[(1R)-1-(6-{[4-(difluoromethyl)pyridin-2-yl]amino}-4-methyl-2,3′-bipyridin-6′-yl)-1-hydroxyethyl]cyclohexyl}carbonyl)-alpha-D-glucopyranoside] | 109 (≈ 71.8 µg/mL) | 4.1 | – |
| Cc1cc(Nc2cc(C(F)F)ccn2)nc(-c2ccc([C@](C)(O)[C@H]3CC[C@H](C(=O)OCCC(=O)N(C)C)CC3)nc2)c1 [Example 1-27, 3-(dimethylamino)-3-oxopropyl trans-4-[(1R)-1-(6-{[4-(difluoromethyl)pyridin-2-yl]amino}-4-methyl-2,3′-bipyridin-6′-yl)-1-hydroxyethyl] cyclohexanecarboxylate] | 50 (≈ 29.1 µg/mL) | 1.8 | – |

Continued, in another order:

| solubility ([1]; Solubility) [µM] | IC50 [2] [nM] | SMILES | solubility ([1]; FaSSIF (fasted state simulated intestinal fluid), FaSSIF, equilibrated overnight at 25° C., maximum solubility approximately 200 μM, read-out: Solubility) [µM] |
| --- | --- | --- | --- |
| 167 (≈ 110 µg/mL) | 19.9 | Cc1cc(Nc2cc(C(F)F)ccn2)nc(-c2ccc([C@](C)(O)[C@H]3CC[C@H](C(=O)OCOC(=O)OCCCCCCN)CC3)nc2)c1 [Example 2-1, ({[(6-Aminohexyl)oxy]carbonyl}oxy)methyl trans-4-[(1R)-1-(6-{[4-(difluoromethyl)pyridin-2-yl]amino}-4-methyl-2,3′-bipyridin-6′-yl)-1-hydroxyethyl]cyclohexanecarboxylate] | – |
| 149 (≈ 97.4 µg/mL) | 5.2 | Cc1cc(Nc2cc(C(F)F)ccn2)nc(-c2ccc([C@](C)(O)[C@H]3CC[C@H](C(=O)OCOC(=O)O[C@H]4CC[C@H](N)CC4)CC3)nc2)c1 [Example 2-11, ({[(trans-4-aminocyclohexyl)oxy]carbonyl}oxy) methyl trans-4-[(1R)-1-(6-{[4-(difluoromethyl)pyridin-2-yl]amino}-4-methyl-2,3′-bipyridin-6′-yl)-1-hydroxyethyl]cyclo hexanecarboxylate] | – |
| 48 (≈ 34.3 µg/mL) | 48.4 | CCOCCOCCOC(=O)OC(OC(=O)[C@H]1CC[C@H]([C@@](C)(O)c2ccc(-c3cc(C)cc(Nc4cc(C(F)F)ccn4)n3)cn2)CC1)C(C)C (stereo partly drawn) [Example 2-16, 1-(1-methylethyl)-3-oxo-2,4,7,10-tetraoxadodec-1-yl trans-4-[(1R)-1-(6-{[4-(difluoromethyl)pyridin-2-yl]amino}-4-methyl-2,3′-bipyridin-6′-yl)-1-hydroxyethyl]cyclo hexanecarboxylate] | – |
| 89 (≈ 60.2 µg/mL) | 4.1 | Cc1cc(Nc2cc(C(F)F)ccn2)nc(-c2ccc([C@](C)(O)[C@H]3CC[C@H](C(=O)OCOC(=O)[C@@H](O)Cc4ccc(O)cc4)CC3)nc2)c1 [Example 3-6, {[(2S)-2-hydroxy-3-(4-hydroxyphenyl)propanoyl]oxy}methyl trans-4-[(1R)-1-(6-{[4-(difluoromethyl)pyridin-2-yl]amino}-4-methyl-2,3′-bipyridin-6′-yl)-1-hydroxyethyl]cyclohexane carboxylate] | – |
| 160 (≈ 93.5 µg/mL) | 4.8 | Cc1cc(Nc2cc(C(F)F)ccn2)nc(-c2ccc([C@](C)(O)[C@H]3CC[C@H](C(=O)OCOC(=O)CCO)CC3)nc2)c1 [Example 3-9, [(3-hydroxypropanoyl)oxy] methyl trans-4-[(1R)-1-(6-{[4-(difluoromethyl)pyridin-2-yl]amino}-4-methyl-2,3′-bipyridin-6′-yl)-1-hydroxyethyl]cyclohexane carboxylate] | – |
| 97 | 0.8 | Cc1cc(Nc2cc(C(F)F)ccn2)nc(-c2ccc([C@](C)(O)[C@H]3CC[C@H](C(=O)OC[N+](C)(C)C(C)C)CC3)nc2)c1 [Example 5-2, N-{[({trans-4-[(1R)-1-(6-{[4-(difluoromethyl)pyridin-2-yl]amino}-4-methyl-2,3′-bipyridin-6′-yl)-1-hydroxyethyl]cyclohexyl}carbonyl)oxy]methyl}-N,N-dimethylpropan-2-aminium] | – |
| 175 | 1.9 | CC[N+](COC(=O)[C@H]1CC[C@H]([C@@](C)(O)c2ccc(-c3cc(C)cc(Nc4cc(C(F)F)ccn4)n3)cn2)CC1)(C(C)C)C(C)C [Example 5-3, N-{[({trans-4-[(1R)-1-(6-{[4-(difluoromethyl)pyridin-2-yl]amino}-4-methyl-2,3′-bipyridin-6′-yl)-1-hydroxyethyl]cyclohexyl}carbonyl)oxy]methyl}-N-ethyl-N-(1-methylethyl)propan-2-aminium] | – |
| 53 | 1.3 | Cc1cc(Nc2cc(C(F)F)ccn2)nc(-c2ccc([C@](C)(O)[C@H]3CC[C@H](C(=O)OC[N+](C)(C)CCN(C)C)CC3)nc2)c1 [Example 5-5, N-{[({trans-4-[(1R)-1-(6-{[4-(difluoromethyl)pyridin-2-yl]amino}-4-methyl-2,3′-bipyridin-6′-yl)-1-hydroxyethyl]cyclohexyl}carbonyl)oxy]methyl}-2-(dimethylamino)-N,N-dimethylethanaminium] | – |
| 152 | 1.1 | CCCC[N+](CC)(CC)COC(=O)[C@H]1CC[C@H]([C@@](C)(O)c2ccc(-c3cc(C)cc(Nc4cc(C(F)F)ccn4)n3)cn2)CC1 [Example 5-6, N-{[({trans-4-[(1R)-1-(6-{[4-(difluoromethyl)pyridin-2-yl]amino}-4-methyl-2,3′-bipyridin-6′-yl)-1-hydroxyethyl]cyclohexyl}carbonyl)oxy]methyl}-N,N-diethylbutan-1-aminium] | – |
